Assay results reported in PubChem BioAssay (NCI).
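In this assay, cells in 96-well plates receive the compound at five concentrations for 48 hours. Endpoints are linearly interpolated between the surrounding concentrations. The concentration for full growth arrest is given as TGI.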

Tests used:
Test in all cases: inhibition of tumour cell growth, NCI panel, 48 h
SW-620 colon = test system: SW-620 colon
SF-295 CNS = test system: SF-295 CNS
MOLT-4 leukemia = test system: MOLT-4 leukemia
HCT-116 colon = test system: HCT-116 colon
PC-3 prostate = test system: PC-3 prostate
HCC-2998 colon = test system: HCC-2998 colon
A498 renal = test system: A498 renal
HOP-62 NSCLC = test system: HOP-62 NSCLC
CCRF-CEM leukemia = test system: CCRF-CEM leukemia
RPMI-8226 leukemia = test system: RPMI-8226 leukemia
OVCAR-4 ovarian = test system: OVCAR-4 ovarian
OVCAR-5 ovarian = test system: OVCAR-5 ovarian
SK-MEL-5 melanoma = test system: SK-MEL-5 melanoma

Row | SMILES | TGI (SW-620 colon) [µM] | TGI (SF-295 CNS) [µM] | TGI (MOLT-4 leukemia) [µM] | TGI (HCT-116 colon) [µM] | TGI (PC-3 prostate) [µM] | TGI (HCC-2998 colon) [µM] | TGI (A498 renal) [µM] | TGI (HOP-62 NSCLC) [µM] | TGI (CCRF-CEM leukemia) [µM] | TGI (RPMI-8226 leukemia) [µM] | TGI (OVCAR-4 ovarian) [µM] | TGI (OVCAR-5 ovarian) [µM] | TGI (SK-MEL-5 melanoma) [µM]
1 | Nc1nc(NCCCO)cc(=O)[nH]1 | > 100 | > 100 | > 100 | > 100 | > 100 | > 100 | > 100 | > 100 | > 100 | > 100 | > 100 | > 100 | > 100
2 | CCOC(=O)c1nc2cc(C(F)(F)F)ccc2nc1Nc1ccc(C(=O)OC)s1 | > 100 | > 100 | > 100 | > 100 | > 100 | > 100 | 81.6 | > 100 | > 100 | > 100 | > 100 | > 100 | > 100
3 | Cc1cc2nc3ccccc3n2c2nc(N)ccc12 | > 100 | 71.5 | > 100 | > 100 | > 100 | > 100 | > 100 | > 100 | > 100 | 70.2 | > 100 | > 100 | 40.2
4 | CCCCCc1c(CCCC)c(=O)[nH]c2nc(NC(=O)CCCC)ccc12 | > 100 | > 100 | > 100 | > 100 | > 100 | > 100 | > 100 | > 100 | > 100 | > 100 | > 100 | > 100 | > 100
5 | COC(=O)c1cc(NC(=O)Cc2c[nH]c3ccccc23)cn1C | > 100 | > 100 | > 100 | > 100 | > 100 | > 100 | > 100 | > 100 | > 100 | 63.9 | > 100 | > 100 | > 100
6 | CC(C)C(OC(=O)c1ccc(NCC2=CC(=O)C=CC2=O)cc1)C(C)C | 27.4 | 29.4 | 7.12 | 24.6 | 29.9 | 27.9 | 31.9 | 48.3 | 2.36 | > 28.2 | 11.4 | 36.4 | 24.5
7 | CC1=CC[C@@]2(C)CC[C@](O)(C(C)C)C2C(OC(=O)c2ccccc2)C1 (stereo partly specified) | 54.4 | 34.8 | 43.5 | 31.8 | 45.6 | 25 | 50.8 | 33.7 | 54.7 | 37.2 | 62.2 | 30.1 | 34.9
8 | O=C(/C=C/c1ccccc1)Nc1ccccc1SCCCCl | > 62.4 | 49.4 | > 100 | 39.1 | > 100 | 73.9 | > 29.5 | > 100 | > 100 | > 100 | > 100 | > 100 | > 91.4
9 | CC(C)CC(N)C(=O)Nc1ccc2ccccc2c1 (stereo unspecified) | > 100 | > 100 | > 100 | > 100 | > 100 | > 100 | > 100 | > 100 | > 100 | > 100 | 54.5 | > 100 | > 100
10 | COc1ccccc1/C=C/C1=NN(c2cccc(S(=O)(=O)O)c2)C2(C1)C(Cl)C(=O)N2c1nc2ccccc2s1 (stereo unspecified) | > 100 | > 100 | > 100 | > 100 | > 100 | > 100 | > 100 | > 100 | 33.1 | 44 | > 100 | > 100 | > 100
11 | O=C1/C(=C/c2ccccc2[N+](=O)[O-])N=C(c2ccccc2)N1c1nc2ccccc2s1 | > 100 | > 100 | 34.7 | 38.5 | > 100 | 43.1 | 72.1 | 72.2 | 0.681 | 61.6 | 51 | > 100 | > 100
12 | NC1CCC(N(CC(=O)O)CC(=O)O)C(N(CC(=O)O)CC(=O)O)C1 (stereo unspecified) | > 100 | > 100 | > 100 | > 100 | > 100 | > 100 | > 100 | > 100 | > 100 | > 100 | > 100 | > 100 | > 100
